These results are taken from ChEMBL document CHEMBL4706686, “Design, synthesis and biological evaluation of dihydrofurocoumarin derivatives as potent neuraminidase inhibitors” (Bioorg Med Chem Lett, 2021).

The nature of the assay: Inhibition of Influenza virus H5N1 neuraminidase. Further details: species or system H5N1 subtype.

Each structure is given as a SMILES string.

`CCCOc1ccc(/C=C2\Oc3ccc4c(C)cc(=O)oc4c3C2=O)cc1` gave an IC50 of 45.8 µM.

Take `Cc1cc(=O)oc2c3c(ccc12)O/C(=C\c1cc([N+](=O)[O-])ccc1F)C3=O`: the IC50 is 99.8 µM.

In turn, `COc1cc(/C=C2\Oc3ccc4c(C)cc(=O)oc4c3C2=O)cc(OC)c1O` registered an IC50 of 0.15 µM.

In turn, `Cc1cc(=O)oc2c3c(ccc12)O/C(=C\c1ccccn1)C3=O` came in with an IC50 of 39.5 µM.

The molecule `CCC(CC)O[C@@H]1C=C(C(=O)O)C[C@H](N)[C@H]1NC(C)=O` [OSELTAMIVIR CARBOXYLATE] returned an IC50 of 0.04 µM.

The molecule `Cc1cc(=O)oc2c3c(ccc12)O/C(=C\c1ccc(OS(C)(=O)=O)cc1)C3=O` displayed a half-maximal inhibitory concentration (IC50) of 32.4 µM.

`Cc1cc(=O)oc2c3c(ccc12)O/C(=C\c1ccc(Cl)cc1Cl)C3=O` displayed a 50% inhibitory concentration (IC50) of 36.2 µM.

With `CCOC(=O)C1=C[C@@H](OC(CC)CC)[C@H](NC(C)=O)[C@@H](N)C1` [OSELTAMIVIR], the IC50 was determined as 0.1 µM.

For `Cc1cc(=O)oc2c3c(ccc12)O/C(=C\c1ccc(O)c([N+](=O)[O-])c1)C3=O`, it took 0.02 µM to reach half-maximal inhibition (IC50).

Molecule `CCOc1cc(/C=C2\Oc3ccc4c(C)cc(=O)oc4c3C2=O)ccc1O` came in with a half-maximal inhibitory concentration (IC50) of 30 µM.

`Cc1cc(=O)oc2c3c(ccc12)O/C(=C\c1ccc([N+](=O)[O-])c(O)c1)C3=O` gave an IC50 of 0.03 µM.

`COc1ccc(/C=C2\Oc3ccc4c(C)cc(=O)oc4c3C2=O)cc1O` showed a half-inhibitory concentration (IC50) of 0.04 µM.

The IC50 is the concentration that gives 50% inhibition.
